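Dose response: 5 concentrations. Exposure: 48 h. Format: 96-well plates. Endpoint: linear interpolation; highest concentration if not reached. At the GI50, growth is halved.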 Calls of active or inactive are those of the source. Rule as the data show it: active = GI50 up to about 1.1 µM and inactive = higher.
How the values were obtained:
Assay in all cases: growth of human tumour cells (NCI), 48 h
HOP-62 = system: HOP-62
DU-145 = system: DU-145
Hs-578T = system: Hs-578T
NCI-H522 = system: NCI-H522
U-251 = system: U-251
SF-268 = system: SF-268
A549 = system: A549
786-0 = system: 786-0
SNB-75 = system: SNB-75
RXF 393 = system: RXF 393
EKVX = system: EKVX
HT-29 = system: HT-29
KM12 = system: KM12
SK-MEL-2 = system: SK-MEL-2
CAKI-1 = system: CAKI-1
SR = system: SR
CCRF-CEM = system: CCRF-CEM
NCI-H226 = system: NCI-H226
HCC 2998 = system: HCC 2998

For `CC(C)C(C/C=C1\CC(CO)(COC(=O)CC(C(C)C)C(C)C)OC1=O)C(C)C` (stereo not drawn), the GI50 (HOP-62) was 5.08 µM (inactive), the GI50 (DU-145) was 8.85 µM (inactive) and the GI50 (Hs-578T) was 3.8 µM (inactive). For the same compound, the GI50 (NCI-H522) was 13.8 µM (inactive), the GI50 (U-251) was 13.8 µM (inactive) and the GI50 (SF-268) was 14.2 µM (inactive). The GI50 (A549) was 3.72 µM (inactive), the GI50 (786-0) was 7.03 µM (inactive) and the GI50 (SNB-75) was 10.4 µM (inactive). For the same compound, the GI50 (RXF 393) was 14.5 µM (inactive), the GI50 (EKVX) was 10 µM (inactive) and the GI50 (HT-29) was 17.7 µM (inactive). For the same compound, the GI50 (KM12) was 14.2 µM (inactive), the GI50 (SK-MEL-2) was 20.9 µM (inactive) and the GI50 (CAKI-1) was 6.87 µM (inactive). The GI50 (SR) was 12.4 µM (inactive), the GI50 (CCRF-CEM) was 4.06 µM (inactive) and the GI50 (NCI-H226) was 9.04 µM (inactive). For the same compound, the GI50 (HCC 2998) was 5.96 µM (inactive).
`CN(C)CCn1c(CO)nc2c1c(=O)n(C)c(=O)n2C` was tested, and the GI50 (HOP-62) was > 100 µM (inactive), the GI50 (DU-145) was > 100 µM (inactive) and the GI50 (Hs-578T) was > 100 µM (inactive). For the same compound, the GI50 (NCI-H522) was > 100 µM (inactive), the GI50 (U-251) was > 100 µM (inactive) and the GI50 (SF-268) was > 100 µM (inactive). For the same compound, the GI50 (A549) was > 100 µM (inactive), the GI50 (786-0) was > 100 µM (inactive) and the GI50 (SNB-75) was > 100 µM (inactive). The GI50 (RXF 393) was > 100 µM (inactive), the GI50 (EKVX) was > 100 µM (inactive) and the GI50 (HT-29) was > 100 µM (inactive). The GI50 (KM12) was > 100 µM (inactive), the GI50 (SK-MEL-2) was > 100 µM (inactive) and the GI50 (CAKI-1) was > 100 µM (inactive). For the same compound, the GI50 (SR) was > 100 µM (inactive), the GI50 (CCRF-CEM) was > 100 µM (inactive) and the GI50 (NCI-H226) was > 100 µM (inactive). The GI50 (HCC 2998) was > 100 µM (inactive).
For `O=C(Nc1ccccc1C(=O)NCc1ccccc1)/C(=C/c1ccccc1O)NC(=O)c1ccccc1`, the GI50 (HOP-62) was 27.1 µM (inactive), the GI50 (DU-145) was > 100 µM (inactive) and the GI50 (Hs-578T) was 69 µM (inactive). For the same compound, the GI50 (NCI-H522) was > 100 µM (inactive), the GI50 (U-251) was 52.5 µM (inactive) and the GI50 (SF-268) was 54.1 µM (inactive). The GI50 (A549) was > 100 µM (inactive), the GI50 (786-0) was 66.4 µM (inactive) and the GI50 (SNB-75) was 19.1 µM (inactive). For the same compound, the GI50 (RXF 393) was 48.9 µM (inactive), the GI50 (EKVX) was > 100 µM (inactive) and the GI50 (HT-29) was > 100 µM (inactive). The GI50 (KM12) was 4.67 µM (inactive), the GI50 (SK-MEL-2) was > 100 µM (inactive) and the GI50 (CAKI-1) was > 100 µM (inactive). For the same compound, the GI50 (SR) was > 100 µM (inactive), the GI50 (CCRF-CEM) was > 100 µM (inactive) and the GI50 (NCI-H226) was > 100 µM (inactive). The GI50 (HCC 2998) was > 100 µM (inactive).
`COc1ccc2nc3ccc(OC)cc3c(SCCO)c2c1` was tested, and the GI50 (HOP-62) was > 58.9 µM (inactive), the GI50 (DU-145) was 5.65 µM (inactive) and the GI50 (Hs-578T) was 15.4 µM (inactive). The GI50 (NCI-H522) was 4.56 µM (inactive), the GI50 (U-251) was 65 µM (inactive) and the GI50 (SF-268) was 25.2 µM (inactive). The GI50 (A549) was > 78.7 µM (inactive), the GI50 (786-0) was 14.4 µM (inactive) and the GI50 (SNB-75) was 28.6 µM (inactive). The GI50 (RXF 393) was 12.6 µM (inactive), the GI50 (EKVX) was 31.7 µM (inactive) and the GI50 (HT-29) was 17.3 µM (inactive). For the same compound, the GI50 (KM12) was 22.5 µM (inactive), the GI50 (SK-MEL-2) was 30 µM (inactive) and the GI50 (CAKI-1) was 13.4 µM (inactive). For the same compound, the GI50 (SR) was 19 µM (inactive), the GI50 (CCRF-CEM) was 3.61 µM (inactive) and the GI50 (NCI-H226) was > 61.7 µM (inactive). For the same compound, the GI50 (HCC 2998) was > 75 µM (inactive).
`CN(CCn1cnc2c1c(=O)n(C)c(=O)n2C)C1CCCCC1` was tested, and the GI50 (HOP-62) was > 100 µM (inactive), the GI50 (DU-145) was > 100 µM (inactive) and the GI50 (Hs-578T) was > 100 µM (inactive). For the same compound, the GI50 (NCI-H522) was > 100 µM (inactive), the GI50 (U-251) was > 100 µM (inactive) and the GI50 (SF-268) was > 100 µM (inactive). The GI50 (A549) was > 100 µM (inactive), the GI50 (786-0) was > 100 µM (inactive) and the GI50 (SNB-75) was > 100 µM (inactive). For the same compound, the GI50 (RXF 393) was > 100 µM (inactive), the GI50 (EKVX) was > 100 µM (inactive) and the GI50 (HT-29) was > 100 µM (inactive). The GI50 (KM12) was > 100 µM (inactive), the GI50 (SK-MEL-2) was > 100 µM (inactive) and the GI50 (CAKI-1) was > 100 µM (inactive). For the same compound, the GI50 (SR) was > 100 µM (inactive), the GI50 (CCRF-CEM) was > 100 µM (inactive) and the GI50 (NCI-H226) was > 100 µM (inactive). For the same compound, the GI50 (HCC 2998) was > 100 µM (inactive).
In the case of `CC[N+]1(C)CCC(O)(/C=C/c2ccc(Cl)c(Cl)c2)C(C(=O)/C=C/c2ccc(Cl)c(Cl)c2)C1` (stereo not drawn), the GI50 (HOP-62) is reported as 2.49 µM (inactive), the GI50 (DU-145) is reported as 2.71 µM (inactive) and the GI50 (Hs-578T) is reported as 2.91 µM (inactive). The GI50 (NCI-H522) was 1.77 µM (inactive), the GI50 (U-251) was 1.77 µM (inactive) and the GI50 (SF-268) was 2.67 µM (inactive). For the same compound, the GI50 (A549) was 4.41 µM (inactive), the GI50 (786-0) was 1.81 µM (inactive) and the GI50 (SNB-75) was 3.78 µM (inactive). The GI50 (RXF 393) was 2.04 µM (inactive), the GI50 (EKVX) was 11.1 µM (inactive) and the GI50 (HT-29) was 2.07 µM (inactive). For the same compound, the GI50 (KM12) was 1.88 µM (inactive), the GI50 (SK-MEL-2) was 3.86 µM (inactive) and the GI50 (CAKI-1) was 4.07 µM (inactive). For the same compound, the GI50 (SR) was 0.406 µM (active), the GI50 (CCRF-CEM) was 1.38 µM (inactive) and the GI50 (NCI-H226) was 4.08 µM (inactive). The GI50 (HCC 2998) was 1.95 µM (inactive).
`CN(C)c1ccc(/C=C(\NC(=O)c2ccccc2)C(=O)Nc2ccccc2C(=O)NN2C(=O)CSC2c2ccc(N(C)C)cc2)cc1` (stereo not drawn) was tested, and the GI50 (HOP-62) was 93.1 µM (inactive), the GI50 (DU-145) was > 100 µM (inactive) and the GI50 (Hs-578T) was > 100 µM (inactive). The GI50 (NCI-H522) was 40.6 µM (inactive), the GI50 (U-251) was > 100 µM (inactive) and the GI50 (SF-268) was > 100 µM (inactive). For the same compound, the GI50 (A549) was > 100 µM (inactive), the GI50 (786-0) was 80.2 µM (inactive) and the GI50 (SNB-75) was > 100 µM (inactive). The GI50 (RXF 393) was 86.3 µM (inactive), the GI50 (EKVX) was > 100 µM (inactive) and the GI50 (HT-29) was > 100 µM (inactive). The GI50 (KM12) was > 100 µM (inactive), the GI50 (SK-MEL-2) was > 100 µM (inactive) and the GI50 (CAKI-1) was > 100 µM (inactive). The GI50 (SR) was > 100 µM (inactive), the GI50 (CCRF-CEM) was > 100 µM (inactive) and the GI50 (NCI-H226) was > 100 µM (inactive). For the same compound, the GI50 (HCC 2998) was 6.37 µM (inactive).

Reference: ChEMBL document CHEMBL1201862, “PubChem BioAssay data set” (2004)
